Laboratory results from PubChem BioAssay (NCI).
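Dose response: 5 concentrations. Exposure: 48 h. Format: 96-well plates. Endpoint: linear interpolation; highest concentration if not reached. GI50 = concentration required for 50% inhibition of growth. The concentration for full growth arrest is given as TGI.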

Experiments:
Assay in all cases: DTP human tumour cell line panel, 48 h
T-47D breast = system: T-47D breast
ACHN renal = system: ACHN renal
LOX IMVI melanoma = system: LOX IMVI melanoma
SNB-75 CNS = system: SNB-75 CNS
TK-10 renal = system: TK-10 renal
KM12 colon = system: KM12 colon
SF-539 CNS = system: SF-539 CNS
CCRF-CEM leukemia = system: CCRF-CEM leukemia
EKVX NSCLC = system: EKVX NSCLC
BT-549 breast = system: BT-549 breast

| SMILES | GI50 (T-47D breast) | TGI (T-47D breast) | GI50 (ACHN renal) | TGI (ACHN renal) | GI50 (LOX IMVI melanoma) | TGI (LOX IMVI melanoma) | GI50 (SNB-75 CNS) | TGI (SNB-75 CNS) | GI50 (TK-10 renal) | TGI (TK-10 renal) | GI50 (KM12 colon) | TGI (KM12 colon) | GI50 (SF-539 CNS) | TGI (SF-539 CNS) | GI50 (CCRF-CEM leukemia) | TGI (CCRF-CEM leukemia) | GI50 (EKVX NSCLC) | TGI (EKVX NSCLC) | GI50 (BT-549 breast) | TGI (BT-549 breast) |
| --- | --- | --- | --- | --- | --- | --- | --- | --- | --- | --- | --- | --- | --- | --- | --- | --- | --- | --- | --- | --- |
| Cc1ccc(-c2nc(N3CCCNCC3)c3oc(-c4ccccc4)nc3n2)cc1 | 2.02 µM | 4 µM | 1.79 µM | 3.22 µM | 1.71 µM | 3.2 µM | 1.41 µM | 2.73 µM | 1.8 µM | 3.2 µM | 1.89 µM | 3.45 µM | 1.79 µM | 3.26 µM | 1.31 µM | 3.13 µM | 1.81 µM | 3.33 µM |  |  |
| COc1ccc2oc(C(=O)O)c3c2c1CCC3 |  |  |  | > 100 µM |  | > 100 µM |  | > 100 µM |  | > 100 µM |  |  |  | > 100 µM |  | > 100 µM |  | > 100 µM |  |  |
| COc1ccc(OC(C(=O)O)c2ccccc2)c2c1CCCC2=O (configuration not stated) |  |  |  | > 100 µM |  | > 100 µM |  |  |  | > 100 µM |  | > 100 µM |  | > 100 µM |  | > 100 µM |  | > 100 µM |  |  |
| O=C1c2ccccc2C(=O)N1C/C=C/CO |  |  |  | > 100 µM |  |  |  | > 100 µM |  | > 100 µM |  | > 100 µM |  | > 100 µM |  | > 100 µM |  |  |  |  |
| c1ccc2c(c1)[nH]c1c2nc2ncccn21 |  |  |  | > 100 µM |  |  |  | > 100 µM |  | > 100 µM |  | > 100 µM |  | > 100 µM |  | > 100 µM |  | > 100 µM |  |  |
| CC1=C[P+](Cc2ccccc2)(c2ccccc2)CC1 (configuration not stated) |  |  |  | > 100 µM |  | > 100 µM |  | > 100 µM |  | > 100 µM |  | > 100 µM |  | > 100 µM |  | > 100 µM |  | > 100 µM |  |  |
| O=C1c2ccccc2-c2c1c1c(O)cccc1n2-c1ccccc1 | > 100 µM | > 100 µM | > 100 µM | > 100 µM | > 100 µM | > 100 µM |  |  | > 100 µM | > 100 µM | > 100 µM | > 100 µM |  |  | 45.3 µM | > 100 µM | > 100 µM | > 100 µM |  |  |
| CNC(=O)c1cccc2c(Nc3ccc(NS(C)(=O)=O)cc3OC)c3cccc(C)c3nc12 |  |  |  | 0.322 µM |  | 3.17 µM |  | 1.34 µM |  | 8.2 µM |  | 2.42 µM |  | 0.661 µM |  | 0.197 µM |  | 12.1 µM |  |  |
| C=C(C)[C@@H]1CC[C@]2(CO)CC[C@]3(C)[C@H](CC[C@@H]4[C@@]5(C)CCC(NCCc6ccc(O)cc6)C(C)(C)[C@@H]5CC[C@]43C)[C@@H]12 (some centres not stated) | 1.51 µM | 3.19 µM | 1.62 µM | 2.97 µM | 0.783 µM | 2.09 µM |  |  | 1.65 µM | 3.13 µM | 1.64 µM | 3.29 µM | 1.63 µM | 3.04 µM | 1.67 µM | 4.14 µM |  |  | 1.75 µM | 3.27 µM |
| CCOc1ccccc1NC(=O)CCc1n[nH]c(=S)o1 |  |  |  | > 100 µM |  | > 100 µM |  | > 100 µM |  | > 100 µM |  | > 100 µM |  | > 100 µM |  | > 100 µM |  | > 100 µM |  |  |
| O=S(O)CCCSSc1ccccc1 |  |  |  | > 100 µM |  | > 100 µM |  | 88.2 µM |  | > 100 µM |  | > 100 µM |  | 62.9 µM |  | 93.3 µM |  | 88.1 µM |  |  |
